Values after ≈ are worked out from the molar mass of the structure shown. Active and inactive are the calls of the source. The rule behind the calls is not given here.
Experiments:
Coagulation factor XI = Coagulation factor XI (Homo sapiens, UniProt P03951); test: Binding affinity to human coagulation factor 11a using L-Pyroglutamyl-L-prolyl-L-arginine p-Nitroaniline as substrate assessed as inhibition constant measured upto 120 mins by spectrophotometric analysis
Plasma = test: Anticoagulant activity in human plasma assessed as activated partial thromboplastin time; format: functional
[1] = Metabolic stability in human liver microsomes assessed as half life; format: ADME, Microsome
Chymotrypsin = Chymotrypsin (Homo sapiens, UniProt Q99895+P17538+P40313+Q6GPI1); test: Binding affinity to human chymotrypsin assessed as inhibition constant using 3-Carbomethoxypropionyl-L-arginyl-Lprolyl-L-tyrosine p-Nitroaniline as substrate measured upto 120 mins by spectrophotometric analysis; format: protein assay
[2] = Fraction unbound in human plasma; format: ADME, cell-free
[3] = Clearance in cynomolgus monkey at 1.50 mg/kg, po or 0.50 mg/kg, iv; format: ADME, organism-based, Macaca fascicularis; conditions: in vivo, dose 1.5 mg/kg
[4] = Volume of distribution at steady state in cynomolgus monkey at 1.50 mg/kg, po or 0.50 mg/kg, iv; format: ADME, organism-based, Macaca fascicularis; conditions: in vivo, dose 1.5 mg/kg, read-out: Vdss
[5] = Protein binding in cynomolgus monkey plasma; format: ADME, cell-free, Macaca fascicularis; conditions: read-out: PPB (converted)
[6] = Metabolic stability in Sprague-Dawley rat liver microsomes assessed as half life; format: ADME, Microsome; set-up: dose or concentration left out as unconfirmed
[7] = Protein binding in Sprague-Dawley rat plasma assessed as bound fraction; format: ADME, cell-free; set-up: dose or concentration left out as unconfirmed
[8] = Clearance in Sprague-Dawley rat at 1.04 mg/kg, po or 0.52 mg/kg, iv; format: ADME, organism-based; conditions: in vivo
[9] = Half life in Sprague-Dawley rat at 1.04 mg/kg, po or 0.52 mg/kg, iv; format: ADME, organism-based; conditions: in vivo
[10] = Volume of distribution at steady state in Sprague-Dawley rat at 1.04 mg/kg, po or 0.52 mg/kg, iv; format: ADME, organism-based; conditions: in vivo, read-out: Vdss
Homo sapiens [11] = organism: Homo sapiens; test: Inhibition of Phosphodiesterase (unknown origin) at 16 to 94 ug/ml; conditions: dose 16-94 µg/ml
Homo sapiens [12] = organism: Homo sapiens; test: Inhibition of Monoamine oxidase (unknown origin) at 16 to 94 ug/ml; conditions: dose 16-94 µg/ml
[13] = target: Acetylcholinesterase (Homo sapiens) (UniProt P22303); test: Inhibition of acetylcholinesterase (unknown origin) at 16 to 94 ug/ml; conditions: dose 16-94 µg/ml
[14] = AUC in Sprague-Dawley rat at 1.04 mg/kg, po; format: ADME, organism-based; set-up: dose 1.04 mg/kg; conditions: in vivo
[15] = Oral bioavailability in Sprague-Dawley rat at 1.04 mg/kg; format: ADME, organism-based; conditions: in vivo
[16] = Half life in cynomolgus monkey at 1.50 mg/kg, po or 0.50 mg/kg, iv; format: ADME, organism-based, Macaca fascicularis; conditions: in vivo, dose 1.5 mg/kg
[17] = Metabolic stability in cynomolgus monkey liver microsomes assessed as half life; format: ADME, Macaca fascicularis, Microsome; set-up: dose or concentration left out as unconfirmed
[18] = Oral bioavailability in cynomolgus monkey at 1.50 mg/kg; format: ADME, organism-based, Macaca fascicularis; conditions: in vivo, dose 1.5 mg/kg
[19] = AUC in cynomolgus monkey at 1.50 mg/kg, po; format: ADME, organism-based, Macaca fascicularis; set-up: dose 1.5 mg/kg; conditions: in vivo, 1.5 mg/kg
[20] = Aqueous solubility of the compound at pH 6.5; format: physicochemical; conditions: aqueous medium
[21] = Aqueous solubility of the compound at pH 1.0; format: physicochemical; conditions: aqueous medium
[22] = Fraction unbound in Sprague-Dawley rat plasma; format: ADME, cell-free
Coagulation factor VII = Coagulation factor VII (Homo sapiens, UniProt P08709); test: Binding affinity to recombinant human coagulation factor 7a assessed as inhibition constant using N-alpha-Benzyloxycarbonyl-D-arginyl-glycyl-Larginine p-Nitroaniline as substrate measured upto 120 mins by coupled enzyme assay
Chain of Coagulation factor VII (P08709 61-212 limits assumed): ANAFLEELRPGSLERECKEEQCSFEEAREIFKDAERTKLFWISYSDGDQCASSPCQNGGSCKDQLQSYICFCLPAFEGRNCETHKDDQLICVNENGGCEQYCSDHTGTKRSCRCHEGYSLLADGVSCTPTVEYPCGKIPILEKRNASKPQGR
Chain of Coagulation factor VII (P08709 213-466 limits assumed): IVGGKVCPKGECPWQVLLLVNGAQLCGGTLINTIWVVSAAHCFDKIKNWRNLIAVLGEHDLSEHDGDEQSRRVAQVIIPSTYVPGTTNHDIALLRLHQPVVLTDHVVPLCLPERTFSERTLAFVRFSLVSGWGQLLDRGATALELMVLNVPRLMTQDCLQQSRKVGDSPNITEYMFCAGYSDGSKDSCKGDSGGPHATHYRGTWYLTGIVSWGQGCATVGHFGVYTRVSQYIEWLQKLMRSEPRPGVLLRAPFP

Coagulation factor IX = Coagulation factor IX (Homo sapiens, UniProt P00740); test: Binding affinity to human coagulation factor 9a assessed as inhibition constant using Methylsulfonyl-D-cyclohexylglycyl-glycylarginine 7-amino-4-methylcoumarin as substrate measured upto 120 mins by spectrofluorometric analysis
Chain of Coagulation factor IX (P00740 47-191 limits assumed): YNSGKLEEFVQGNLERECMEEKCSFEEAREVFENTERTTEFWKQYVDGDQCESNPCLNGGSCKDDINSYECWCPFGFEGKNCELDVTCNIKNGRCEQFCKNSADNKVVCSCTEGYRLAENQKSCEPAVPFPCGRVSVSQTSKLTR
Chain of Coagulation factor IX (P00740 227-461 limits assumed): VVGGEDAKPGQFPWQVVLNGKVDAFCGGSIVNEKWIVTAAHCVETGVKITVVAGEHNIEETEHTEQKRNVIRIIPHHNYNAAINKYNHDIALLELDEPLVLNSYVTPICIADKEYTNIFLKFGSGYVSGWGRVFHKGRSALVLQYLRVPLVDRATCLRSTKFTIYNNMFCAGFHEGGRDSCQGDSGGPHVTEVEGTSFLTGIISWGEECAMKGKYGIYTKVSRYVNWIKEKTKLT

Coagulation factor X = Coagulation factor X (Homo sapiens, UniProt P00742); test: Binding affinity to human coagulation factor 10a assessed as inhibition constant using N-Benzoyl-L-isoleucyl-L-glutamyl-glycyl-Larginine p-Nitroaniline and its gamma glutamyl methyl ester as substrate measured upto 120 mins by spectrophotometric analysis
Chain of Coagulation factor X (P00742 41-179 limits assumed): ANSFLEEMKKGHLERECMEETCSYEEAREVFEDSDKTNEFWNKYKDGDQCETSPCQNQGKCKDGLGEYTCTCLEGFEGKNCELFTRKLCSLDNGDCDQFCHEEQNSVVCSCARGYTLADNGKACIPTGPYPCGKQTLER
Chain of Coagulation factor X (P00742 235-488 limits assumed): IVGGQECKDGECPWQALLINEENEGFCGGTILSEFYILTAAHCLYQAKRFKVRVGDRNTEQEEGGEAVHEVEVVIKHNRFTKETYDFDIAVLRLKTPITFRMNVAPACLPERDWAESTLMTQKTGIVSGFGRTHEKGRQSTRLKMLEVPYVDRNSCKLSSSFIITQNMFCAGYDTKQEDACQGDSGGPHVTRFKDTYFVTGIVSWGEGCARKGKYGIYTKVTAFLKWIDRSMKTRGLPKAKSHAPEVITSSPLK

Coagulation factor XII = Coagulation factor XII (Homo sapiens, UniProt P00748); test: Binding affinity to human coagulation factor 12a assessed as inhibition constant using H-D-Cyclohexylalanyl-glycyl-arginyl p-Nitroaniline as substrate measured upto 120 mins by spectrophotometric analysis
Kallikrein-1 = Kallikrein-1 (Homo sapiens, UniProt P06870); test: Binding affinity to human tissue kallikrein-1 assessed as inhibition constant using H-D-Valyl-L-leucyl-L-arginine 7-amino-4-trifluoromethylcoumarin as substrate measured upto 120 mins by spectrofluorometric analysis; format: tissue-based
Chain of Kallikrein-1 (P06870 whole entry): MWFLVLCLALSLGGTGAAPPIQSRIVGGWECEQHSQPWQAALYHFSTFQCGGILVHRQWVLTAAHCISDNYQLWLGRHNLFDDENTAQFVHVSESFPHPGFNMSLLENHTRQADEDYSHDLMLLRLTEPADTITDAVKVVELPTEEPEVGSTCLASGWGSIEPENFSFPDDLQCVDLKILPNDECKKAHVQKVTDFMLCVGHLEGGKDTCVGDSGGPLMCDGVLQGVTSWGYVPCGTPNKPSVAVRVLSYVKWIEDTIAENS

Trypsin = Trypsin (Homo sapiens, UniProt P07477+P07478+P35030); test: Binding affinity to human trypsin assessed as inhibition constant using N-Benzoyl-L-isoleucyl-L-glutamyl-glycyl-Larginine p-Nitroaniline and its gamma glutamyl methyl ester as substrate measured upto 120 mins by spectrophotometric analysis; format: protein assay
[23] = target: Vitamin K-dependent protein C (Homo sapiens, UniProt P04070); test: Binding affinity to human activated protein C assessed as inhibition constant using L-Pyroglutamyl-L-prolyl-L-arginine p-Nitroaniline as substrate measured upto 120 mins by spectrophotometric analysis
Chain of Vitamin K-dependent protein C (P04070 43-197 limits assumed): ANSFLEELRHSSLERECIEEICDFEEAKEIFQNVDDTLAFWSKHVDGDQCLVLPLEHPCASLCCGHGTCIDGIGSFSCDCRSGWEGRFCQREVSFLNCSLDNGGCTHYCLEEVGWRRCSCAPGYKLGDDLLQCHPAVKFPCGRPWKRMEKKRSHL
Chain of Vitamin K-dependent protein C (P04070 212-461 limits assumed): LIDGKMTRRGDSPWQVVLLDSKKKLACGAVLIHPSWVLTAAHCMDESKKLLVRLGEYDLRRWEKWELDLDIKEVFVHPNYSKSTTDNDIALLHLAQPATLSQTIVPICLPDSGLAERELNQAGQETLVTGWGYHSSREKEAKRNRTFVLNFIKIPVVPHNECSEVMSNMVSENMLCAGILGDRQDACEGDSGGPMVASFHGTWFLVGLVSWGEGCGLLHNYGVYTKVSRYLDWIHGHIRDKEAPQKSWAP

Plasminogen = Plasminogen (Homo sapiens, UniProt P00747); test: Binding affinity to human plasmin assessed as inhibition constant using H-D-Valyl-L-leucyl-L-lysine p-Nitroaniline as substrate measured upto 120 mins by spectrophotometric analysis
Chain of Plasminogen (P00747 97-580 limits assumed): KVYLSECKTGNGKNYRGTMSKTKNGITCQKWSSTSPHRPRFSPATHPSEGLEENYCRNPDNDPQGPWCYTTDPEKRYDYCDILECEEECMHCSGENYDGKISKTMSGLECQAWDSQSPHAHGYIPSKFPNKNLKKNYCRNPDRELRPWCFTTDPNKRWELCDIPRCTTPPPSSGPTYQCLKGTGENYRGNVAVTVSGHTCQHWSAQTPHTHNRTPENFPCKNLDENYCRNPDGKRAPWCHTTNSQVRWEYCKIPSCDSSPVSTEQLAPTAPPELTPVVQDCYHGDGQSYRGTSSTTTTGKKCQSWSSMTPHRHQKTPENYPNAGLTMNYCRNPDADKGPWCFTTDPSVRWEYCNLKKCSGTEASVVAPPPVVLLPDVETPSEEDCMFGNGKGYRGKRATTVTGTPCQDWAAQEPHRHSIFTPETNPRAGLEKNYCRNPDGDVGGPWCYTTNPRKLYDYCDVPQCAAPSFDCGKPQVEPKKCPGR
Chain of Plasminogen (P00747 581-810 limits assumed): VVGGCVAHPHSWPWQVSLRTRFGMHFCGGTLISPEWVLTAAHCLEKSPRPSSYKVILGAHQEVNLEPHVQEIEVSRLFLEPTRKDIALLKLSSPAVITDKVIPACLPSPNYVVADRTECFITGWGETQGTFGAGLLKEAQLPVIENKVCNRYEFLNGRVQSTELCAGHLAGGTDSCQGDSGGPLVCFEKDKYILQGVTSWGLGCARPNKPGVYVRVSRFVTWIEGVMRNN

[24] = target: Tissue-type plasminogen activator (Homo sapiens, UniProt P00750); test: Binding affinity to human tissue type plasminogen assessed as inhibition constant using Methanesulfonyl-D-Cyclohexylalanyl-glycylarginine p-Nitroaniline as substrate measured upto 120 mins by spectrophotometric analysis
Chain of Tissue-type plasminogen activator (P00750 whole entry): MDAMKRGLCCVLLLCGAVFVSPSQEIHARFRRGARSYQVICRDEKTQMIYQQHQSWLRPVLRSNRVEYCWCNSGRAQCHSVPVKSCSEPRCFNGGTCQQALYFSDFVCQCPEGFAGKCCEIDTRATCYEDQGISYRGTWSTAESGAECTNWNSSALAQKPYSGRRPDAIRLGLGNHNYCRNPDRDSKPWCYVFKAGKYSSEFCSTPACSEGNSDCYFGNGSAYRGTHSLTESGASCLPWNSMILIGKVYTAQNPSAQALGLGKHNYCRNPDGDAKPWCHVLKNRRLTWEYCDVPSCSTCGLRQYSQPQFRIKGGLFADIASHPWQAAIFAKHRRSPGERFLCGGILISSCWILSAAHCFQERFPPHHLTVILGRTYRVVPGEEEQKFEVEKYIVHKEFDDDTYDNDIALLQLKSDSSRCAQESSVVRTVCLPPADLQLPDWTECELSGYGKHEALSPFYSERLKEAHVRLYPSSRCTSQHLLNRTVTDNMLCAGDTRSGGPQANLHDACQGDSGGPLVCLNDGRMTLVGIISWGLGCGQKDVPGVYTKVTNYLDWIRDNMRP

[25] = target: Urokinase-type plasminogen activator (Homo sapiens, UniProt P00749); test: Binding affinity to human urokinase assessed as inhibition constant using L-Pyroglutamyl-glycyl-L-arginine p-Nitroaniline as substrate upto 120 mins by spectrophotometric analysis
Neutrophil elastase = Neutrophil elastase (Homo sapiens, UniProt P08246); test: Binding affinity to human neutrophil elastase assessed as inhibition constant using Methoxysuccinyl-L-alanyl-L-alanyl-L-prolylL-valine p-Nitroaniline as substrate measured upto 120 mins by spectrophotometric analysis
Chain of Neutrophil elastase (P08246 whole entry): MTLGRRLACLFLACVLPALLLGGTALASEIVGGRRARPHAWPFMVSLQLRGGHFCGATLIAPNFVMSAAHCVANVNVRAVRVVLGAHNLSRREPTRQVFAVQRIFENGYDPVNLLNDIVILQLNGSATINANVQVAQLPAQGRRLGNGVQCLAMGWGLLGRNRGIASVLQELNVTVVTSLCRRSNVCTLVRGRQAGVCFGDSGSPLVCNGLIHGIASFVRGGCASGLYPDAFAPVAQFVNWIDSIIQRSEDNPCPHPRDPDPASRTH

Cathepsin G = Cathepsin G (Homo sapiens, UniProt P08311); test: Binding affinity to human neutrophil cathepsin G assessed as inhibition constant using Succinyl-L-alanyl-L-alanyl-L-prolyl-Lphenylalanine p-Nitroaniline as substrate measured upto 120 mins by spectrophotometric analysis
Chain of Cathepsin G (P08311 whole entry): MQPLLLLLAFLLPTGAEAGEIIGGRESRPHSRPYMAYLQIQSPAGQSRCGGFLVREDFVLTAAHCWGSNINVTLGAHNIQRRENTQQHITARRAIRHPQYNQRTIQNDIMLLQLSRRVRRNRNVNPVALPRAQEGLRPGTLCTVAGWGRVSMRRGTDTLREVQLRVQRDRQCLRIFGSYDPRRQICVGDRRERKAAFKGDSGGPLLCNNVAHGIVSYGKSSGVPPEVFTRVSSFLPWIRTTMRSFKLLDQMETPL

Myeloblastin = Myeloblastin (Homo sapiens, UniProt P24158); test: Binding affinity to human neutrophil proteinase 3 assessed as inhibition constant using Methoxysuccinyl-L-alanyl-L-alanyl-L-prolylL-valine p-Nitroaniline as substrate measured upto 120 mins by spectrophotometric analysis
Chain of Myeloblastin (P24158 whole entry): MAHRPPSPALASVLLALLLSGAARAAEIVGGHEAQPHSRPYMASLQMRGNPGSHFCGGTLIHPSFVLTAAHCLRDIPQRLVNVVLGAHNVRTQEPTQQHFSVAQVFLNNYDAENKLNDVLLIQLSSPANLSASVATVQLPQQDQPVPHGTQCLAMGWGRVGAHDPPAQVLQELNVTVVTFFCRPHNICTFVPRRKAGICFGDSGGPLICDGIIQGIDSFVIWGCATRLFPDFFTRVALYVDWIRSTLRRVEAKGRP

Chymase = Chymase (Homo sapiens, UniProt P23946); test: Binding affinity to human mast cell chymase assessed as inhibition constant using Succinyl-L-alanyl-L-alanyl-L-prolyl-L phenylalanine p-Nitroaniline as substrate measured upto 120 mins by spectrophotometric analysis
Chain of Chymase (P23946 whole entry, the tested form may be a part): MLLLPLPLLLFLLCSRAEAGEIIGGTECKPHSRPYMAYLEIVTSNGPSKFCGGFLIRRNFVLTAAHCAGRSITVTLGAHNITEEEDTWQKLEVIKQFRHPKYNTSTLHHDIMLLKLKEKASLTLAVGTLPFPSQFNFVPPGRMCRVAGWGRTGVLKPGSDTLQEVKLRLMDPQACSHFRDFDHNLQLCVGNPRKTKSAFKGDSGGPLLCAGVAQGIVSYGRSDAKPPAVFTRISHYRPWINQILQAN

Oryctolagus cuniculus = test: Antithrombotic activity in New Zealand White rabbit model of electrically-induced carotid artery thrombosis assessed as inhibition of thrombosis formation by measuring increase in bleeding time administered as iv bolus dose and subsequently administered as iv infusion 30 mins prior to injury; format: functional, organism-based

Chain of Coagulation factor XI (P03951 19-387 limits assumed): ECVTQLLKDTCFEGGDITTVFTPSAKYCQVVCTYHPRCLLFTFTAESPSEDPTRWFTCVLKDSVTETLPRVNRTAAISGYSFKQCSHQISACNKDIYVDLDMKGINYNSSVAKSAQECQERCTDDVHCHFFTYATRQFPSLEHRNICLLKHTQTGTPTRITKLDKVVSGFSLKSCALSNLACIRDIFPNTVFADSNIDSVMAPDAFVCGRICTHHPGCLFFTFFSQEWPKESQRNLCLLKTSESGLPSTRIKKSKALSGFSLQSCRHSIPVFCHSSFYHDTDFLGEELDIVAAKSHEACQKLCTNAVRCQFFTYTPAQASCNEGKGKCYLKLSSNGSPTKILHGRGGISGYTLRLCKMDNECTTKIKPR
Chain of Coagulation factor XI (P03951 388-625 limits assumed): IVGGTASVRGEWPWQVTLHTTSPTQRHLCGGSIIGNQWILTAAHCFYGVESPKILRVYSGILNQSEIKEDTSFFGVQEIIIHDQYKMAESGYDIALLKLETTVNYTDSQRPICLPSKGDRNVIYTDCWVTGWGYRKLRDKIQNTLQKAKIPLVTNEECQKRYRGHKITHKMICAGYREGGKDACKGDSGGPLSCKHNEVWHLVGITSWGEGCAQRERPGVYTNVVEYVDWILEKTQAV

**Q.** For `CCn1ncc2c1-c1ccnc(c1)[C@@H](N1CCC(c3cc(Cl)ccc3-n3ccnn3)=CC1=O)CCC[C@@H](C)C(=O)N2`, which Ki (Coagulation factor XI) is on record?
**A.** Its Ki is 1.3 nM.

**Q.** And the EC1.5 (Plasma)?
**A.** The EC1.5 was 0.48 µM.

**Q.** What about the half-life [1] of the same compound?
**A.** Its half-life is 10 min.

**Q.** For `C[C@@H]1CCC[C@H](N2CCC(c3cc(Cl)ccc3-n3cc(Cl)nn3)=CC2=O)c2cc(ccn2)-c2c(cnn2C)NC1=O`, which EC1.5 (Plasma) is on record?
**A.** The EC1.5 was 0.3 µM.

**Q.** What about the half-life [1] of the same compound?
**A.** The half-life was 65 min.

**Q.** Which Ki (Coagulation factor XI) does the source give for `C[C@@H]1CCC[C@H](N2CCC(c3c(F)ccc(Cl)c3F)=CC2=O)c2cc(ccn2)-c2cn[nH]c2NC1=O` here?
**A.** The Ki was 330 nM.

**Q.** Which results are given for `C[C@@H]1CCC[C@H](N2CCC(c3cc(Cl)ccc3-n3ccnn3)=CC2=O)c2cc(ccn2)-c2c(cnn2C2CC2)NC1=O`?
**A.** Ki (Coagulation factor XI): 1.1 nM; EC1.5 (Plasma): 0.49 µM; half-life [1]: 5 min

**Q.** Which Ki (Chymotrypsin) does the source give for `C[C@@H]1CCC[C@H](n2cnc(-c3cc(Cl)ccc3-n3cc(Cl)nn3)cc2=O)c2cc(ccn2)-c2c(cnn2C(F)F)NC1=O` [MILVEXIAN] here?
**A.** The Ki was 35 nM.

**Q.** And the fraction unbound [2]?
**A.** The fraction unbound was 0.085.

**Q.** And the clearance [3]?
**A.** Its clearance is 10.3 mL/min/kg.

**Q.** And the Vd [4]?
**A.** The Vd was 2.2 L/kg.

**Q.** What about the fraction unbound [5] of the same compound?
**A.** Its fraction unbound is 0.109.

**Q.** What about the EC1.5 (Plasma) of the same compound?
**A.** Its EC1.5 is 0.5 µM.

**Q.** What about the half-life [1] of the same compound?
**A.** Its half-life is > 120 min.

**Q.** What about the half-life [6] of the same compound?
**A.** The half-life was > 120 min.

**Q.** And the fraction unbound [7]?
**A.** Its fraction unbound is 0.029.

**Q.** What about the clearance [8] of the same compound?
**A.** Its clearance is 7.1 mL/min/kg.

**Q.** What about the half-life [9] of the same compound?
**A.** The half-life was 84 min.

**Q.** And the Vd [10]?
**A.** The Vd was 0.9 L/kg.

**Q.** And the inhibition (Homo sapiens [11])?
**A.** The inhibition was “inactive”.

**Q.** And the inhibition (Homo sapiens [12])?
**A.** Its inhibition is “inactive”.

**Q.** And the inhibition [13]?
**A.** The inhibition was “inactive”.

**Q.** What about the AUC [14] of the same compound?
**A.** The AUC was 42 µM·min.

**Q.** And the bioavailability [15]?
**A.** The bioavailability was 18%.

**Q.** And the half-life [16]?
**A.** Its half-life is 162 min.

**Q.** What about the half-life [17] of the same compound?
**A.** The half-life was 83 min.

**Q.** And the bioavailability [18]?
**A.** Its bioavailability is 32%.

**Q.** What about the AUC [19] of the same compound?
**A.** Its AUC is 72.9 µM·min.

**Q.** What about the solubility [20] of the same compound?
**A.** The solubility was 6 µg/mL (≈ 9.58 µM).

**Q.** What about the solubility [21] of the same compound?
**A.** The solubility was 8 µg/mL (≈ 12.8 µM).

**Q.** And the fraction unbound [22]?
**A.** Its fraction unbound is 0.029.

**Q.** And the Ki (Coagulation factor VII)?
**A.** Its Ki is 1200 nM.

**Q.** What about the Ki (Coagulation factor IX) of the same compound?
**A.** The Ki was > 27 µM.

**Q.** What about the Ki (Coagulation factor X) of the same compound?
**A.** Its Ki is > 13 µM.

**Q.** What about the Ki (Coagulation factor XII) of the same compound?
**A.** Its Ki is > 3 µM.

**Q.** What about the Ki (Kallikrein-1) of the same compound?
**A.** Its Ki is > 11 µM.

**Q.** What about the Ki (Trypsin) of the same compound?
**A.** The Ki was 720 nM.

**Q.** And the Ki [23]?
**A.** Its Ki is > 21 µM.

**Q.** What about the Ki (Plasminogen) of the same compound?
**A.** Its Ki is 2650 nM.

**Q.** What about the Ki [24] of the same compound?
**A.** Its Ki is 2300 nM.

**Q.** And the Ki [25]?
**A.** The Ki was 3.9 µM.

**Q.** What about the Ki (Neutrophil elastase) of the same compound?
**A.** Its Ki is > 8 µM.

**Q.** And the Ki (Cathepsin G)?
**A.** Its Ki is > 20 µM.

**Q.** What about the Ki (Myeloblastin) of the same compound?
**A.** The Ki was > 12 µM.

**Q.** What about the Ki (Chymase) of the same compound?
**A.** Its Ki is > 13 µM.

**Q.** With `COC(=O)Nc1ccc2c(c1)NC(=O)[C@H](C)CCC[C@H](N1CCC(c3c(F)ccc(Cl)c3F)=CC1=O)c1cc-2ccn1` as the compound, how does the EC50 (Oryctolagus cuniculus) read?
**A.** The EC50 was 375 nM.

**Q.** Which Ki (Coagulation factor XI) does the source give for `C[C@@H]1CCC[C@H](N2CCC(c3c(F)ccc(Cl)c3F)=CC2=O)c2cc(ccn2)-c2nn(C)cc2NC1=O` here?
**A.** Its Ki is 171 nM.

**Q.** For `C[C@@H]1CCC[C@H](N2CCC(c3cc(Cl)ccc3-n3ccnn3)=CC2=O)c2cc(ccn2)-c2c(cnn2CC(F)F)NC1=O`, which Ki (Coagulation factor XI) is on record?
**A.** Its Ki is 11 nM.

**Q.** What about the EC1.5 (Plasma) of the same compound?
**A.** Its EC1.5 is 1.54 µM.

**Q.** And the half-life [1]?
**A.** The half-life was 76 min.

**Q.** Which EC1.5 (Plasma) does the source give for `C[C@@H]1CCC[C@H](N2CCC(c3cc(Cl)ccc3-n3ccnn3)=CC2=O)c2cc(ccn2)-c2c(cnn2C2CCC2)NC1=O` here?
**A.** Its EC1.5 is 3.04 µM.

**Q.** And the half-life [1]?
**A.** The half-life was 6 min.
